What was measured:
A172 cells [1] = test: Colony formation (clonogenic survival) of A172 cells, TTFields alone and in combination with ABT-751; assay type: cell-based; conditions: ABT-751 1 μM, 8 hours, TTFields 200 kHz, 3.3 V/cm, 72 hours (continuous or 3×16 hours), FIG. 2
Protocol: (§1) For the first two bars, both without (−) and with (+) ABT-751, TTFields were not applied. For the next two bars, both without (−) and with (+) ABT-751, TTFields were applied for three 16 hour intervals, and each of those 16 hour intervals was followed by an 8 hour interval during which TTFields were not applied. For the next two bars, both without (−) and with (+) ABT-751, TTFields were applied continuously for 72 hours. […] Data are mean±SEM; n≥5; Statistical significance was determined by one-way ANOVA; Tukey-corrected for multiple comparisons; *p<0.05, **p<0.01, ***p<0.001, ****p<0.0001. In all the experiments described herein, TTFields (200 kHz; 3.3V/cm) were applied using an Inovitro™ system.

A172 cells [2] = test: Growth of A172 cells, TTFields alone and in combination with ABT-751; assay type: cell-based; conditions: ABT-751 1 μM, 8 hours, TTFields 200 kHz, 3.3 V/cm, 72 hours (continuous or 3×16 hours), FIG. 1
Protocol: as §1

In the case of `COc1ccc(S(=O)(=O)Nc2cccnc2Nc2ccc(O)cc2)cc1` [ABT-751, N-[2-(4-hydroxyanilino)pyridin-3-yl]-4-methoxybenzenesulfonamide], the “synergy with TTFields on colony formation” value (A172 cells [1]) is reported as “synergizes” and the “synergy with TTFields on cell growth” value (A172 cells [2]) is reported as “synergizes”.

From patent US20200108031A1, “Treating Tumors Using TTFields Combined with ABT-751” (Novocure GmbH, priority 2018, published 2020)
